In assay [1] the test system is barnyardgrass. The experiment in a line: Test A preemergence. Type of assay: in vivo, Echinochloa crus-galli. The conditions noted are these: 1000 g ai/ha, 0 to 100 scale, 0 no effect, 100 complete control; for Barnyardgrass plant response rating: approx. 10 days. In short, it runs like this:
(§1)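 Greenhouse pot test, loam/sand soil. Formulation: non-phytotoxic solvent mix plus surfactant. Pre: directed spray onto soil after sowing. Post: plants at 1–2 leaf, 2–10 cm. Rated visually vs untreated controls at ~10 d, 0 (no effect) to 100 (complete control).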

Assay [2] concerns kochia. Briefly: Test A preemergence. Type of assay: in vivo, Kochia scoparia. The conditions noted are these: 1000 g ai/ha, 0 to 100 scale, 0 no effect, 100 complete control, approx. 10 days. The source says:
(§2) Seeds of plant species selected from barnyardgrass (Echinochloa crus-galli), kochia (Kochia scoparia), ragweed (common ragweed, Ambrosia elatior), Italian ryegrass (Lolium multiflorum), large (Lg) crabgrass (Digitaria sanguinalis), giant foxtail (Setaria faberii), morningglory (Ipomoea spp.), pigweed (Amaranthus retroflexus), velvetleaf (Abutilon theophrasti), wheat (Triticum aestivum), and corn (Zea mays) were planted into a blend of loam soil and sand and treated preemergence with a directed soil spray using test chemicals formulated in a non-phytotoxic solvent mixture which included a surfactant.
(§3) At the same time, plants selected from these crop and weed species and also blackgrass (Alopecurus myosuroides), and galium (catchweed bedstraw, Galium aparine) were planted in pots containing the same blend of loam soil and sand and treated with postemergence applications of test chemicals formulated in the same manner. Plants ranged in height from 2 to 10 cm and were in the one- to two-leaf stage for the postemergence treatment. Treated plants and untreated controls were maintained in a greenhouse for approximately 10 days, after which time all treated plants were compared to untreated controls and visually evaluated for injury. Plant response ratings, summarized in Table A, are based on a 0 to 100 scale where 0 is no effect and 100 is complete control. A dash (-) response means no test result.

For assay [3], the system named is ragweed. The experiment in a line: Test A preemergence. Type of assay: in vivo, Ambrosia elatior. The conditions noted are these: 1000 g ai/ha, 0 to 100 scale, 0 no effect, 100 complete control, approx. 10 days.
From the text: as §2, §3

For assay [4], the system named is Italian ryegrass. The experiment in a line: Test A preemergence. Type of assay: in vivo, Lolium multiflorum. The conditions noted are these: 1000 g ai/ha, 0 to 100 scale, 0 no effect, 100 complete control, approx. 10 days.
From the text: as §2, §3

For assay [5], the system named is giant foxtail. The experiment in a line: Test A preemergence. In kind it is in vivo, Setaria faberii. The conditions noted are these: 1000 g ai/ha, 0 to 100 scale, 0 no effect, 100 complete control, approx. 10 days. In short, it runs like this:
as §1

The subject of assay [6] is pigweed. The experiment in a line: Test A preemergence. In kind it is in vivo, Amaranthus retroflexus. The settings on record: 1000 g ai/ha, 0 to 100 scale, 0 no effect, 100 complete control, approx. 10 days. The method, boiled down: as §1
For assay [7], the system named is barnyardgrass. Briefly: Test A postemergence. In kind it is in vivo, Echinochloa crus-galli. The conditions noted are these: 1000 g ai/ha, 0 to 100 scale, 0 no effect, 100 complete control. The method, boiled down: as §1
The subject of assay [8] is kochia. The experiment in a line: Test A postemergence. The conditions noted are these: 1000 g ai/ha, 0 to 100 scale, 0 no effect, 100 complete control. In kind it is in vivo, Kochia scoparia.
From the text: as §2, §3

Assay [9] concerns ragweed. The experiment in a line: Test A postemergence. In kind it is in vivo, Ambrosia elatior. The conditions noted are these: 1000 g ai/ha, 0 to 100 scale, 0 no effect, 100 complete control.
From the text: as §2, §3

Assay [10] concerns Italian ryegrass. Briefly: Test A postemergence. Type of assay: in vivo, Lolium multiflorum. The settings on record: 1000 g ai/ha, 0 to 100 scale, 0 no effect, 100 complete control.
From the text: as §2, §3

The test system of assay [11] is giant foxtail. Briefly: Test A postemergence. Type of assay: in vivo, Setaria faberii. The settings on record: 1000 g ai/ha, 0 to 100 scale, 0 no effect, 100 complete control. In short, it runs like this:
as §1

For assay [12], the system named is pigweed. Briefly: Test A postemergence. Type of assay: in vivo, Amaranthus retroflexus. The conditions noted are these: 1000 g ai/ha, 0 to 100 scale, 0 no effect, 100 complete control. In short, it runs like this: as §1
Another assay relates to wheat. Briefly: Test A postemergence. In kind it is in vivo, Triticum aestivum. The settings on record: 1000 g ai/ha, 0 to 100 scale, 0 no effect, 100 complete control. The method, boiled down: as §1
For another assay, the system named is corn. The experiment in a line: Test A postemergence. Type of assay: in vivo, Zea mays. The settings on record: 1000 g ai/ha, 0 to 100 scale, 0 no effect, 100 complete control. The method, boiled down:
as §1

A further assay has as its system blackgrass. The experiment in a line: Test A postemergence. The settings on record: 1000 g ai/ha, 0 to 100 scale, 0 no effect, 100 complete control. In kind it is in vivo, Alopecurus myosuroides.
From the text: as §2, §3

In a further assay the test system is galium. Briefly: Test A postemergence. The settings on record: 1000 g ai/ha, 0 to 100 scale, 0 no effect, 100 complete control. In kind it is in vivo, Galium aparine.
From the text: as §2, §3

Turning to `O=Cc1cn(-c2c(F)cccc2Oc2ncc(Cl)cn2)nn1` [Compound 139], the “Barnyardgrass plant response rating” value in the assay with barnyardgrass [1] is 0. In addition, in the assay with kochia [2], the “Kochia plant response rating” value amounted to 0. In addition, the “Ragweed plant response rating” value with ragweed [3] is on record as 0. For the same compound, the “Ryegrass, Italian plant response rating” value in the assay with Italian ryegrass [4] came to 0. Besides, the “Foxtail, Giant plant response rating” value in the assay on giant foxtail [5] is reported as 0. In addition, the “Pigweed plant response rating” value with pigweed [6] is recorded as 50. Further, the “Plant response rating, Barnyardgrass” value in the assay on barnyardgrass [7] is 0. Also, the “Plant response rating, Kochia” value with kochia [8] was 0. The “Plant response rating, Ragweed” value with ragweed [9] is 0. In the assay on Italian ryegrass [10], the “Plant response rating, Ryegrass, Italian” value was determined as 0. The “Plant response rating, Foxtail, Giant” value in the assay with giant foxtail [11] is 0. In addition, the “Plant response rating, Pigweed” value in the assay on pigweed [12] was found to be 30. Also, in the assay on wheat, the “Plant response rating, Wheat” value is 0. Moreover, the “Plant response rating, Corn” value in the assay on corn is 20. The “Plant response rating, Blackgrass” value with blackgrass worked out at 0. In addition, the “Plant response rating, Galium” value with galium was found to be 10.
For `CCNC(=O)c1cccc(Oc2ncc(Cl)cn2)c1-n1cc(C(F)(F)F)cn1` [Compound 257], the “Barnyardgrass plant response rating” value in the assay with barnyardgrass [1] was 50. Moreover, in the assay with kochia [2], the “Kochia plant response rating” value amounted to 70. Further, the “Ragweed plant response rating” value with ragweed [3] is listed as 70. Besides, the “Ryegrass, Italian plant response rating” value with Italian ryegrass [4] is 20. For the same compound, the “Foxtail, Giant plant response rating” value in the assay on giant foxtail [5] was 70. Moreover, the “Pigweed plant response rating” value in the assay on pigweed [6] stood at 80. The “Plant response rating, Barnyardgrass” value in the assay on barnyardgrass [7] turned out to be 10. Besides, the “Plant response rating, Kochia” value with kochia [8] turned out to be 60. Further, the “Plant response rating, Ragweed” value in the assay on ragweed [9] worked out at 30. Further, the “Plant response rating, Ryegrass, Italian” value in the assay on Italian ryegrass [10] was found to be 0. For the same compound, the “Plant response rating, Foxtail, Giant” value with giant foxtail [11] was found to be 10. In addition, the “Plant response rating, Pigweed” value in the assay with pigweed [12] was 40. For the same compound, the “Plant response rating, Wheat” value in the assay on wheat turned out to be 0. In addition, the “Plant response rating, Corn” value with corn worked out at 0. For the same compound, the “Plant response rating, Blackgrass” value in the assay on blackgrass came out at 10. The “Plant response rating, Galium” value with galium was 30.
Consider `Fc1cccc(Oc2ncc(Cl)cn2)c1-n1cc(C2CCCCC2)nn1` [Compound 102], for which the “Plant response rating, Barnyardgrass” value with barnyardgrass [1] and with barnyardgrass [7] was 50 in each case. Besides, the “Kochia plant response rating” value in the assay on kochia [2] is 0. Also, the “Ragweed plant response rating” value in the assay on ragweed [3] came out at 0. The “Ryegrass, Italian plant response rating” value with Italian ryegrass [4] was 0. Further, the “Foxtail, Giant plant response rating” value in the assay on giant foxtail [5] amounted to 100. Further, the “Pigweed plant response rating” value in the assay with pigweed [6] amounted to 20. For the same compound, in the assay on kochia [8], the “Plant response rating, Kochia” value was 30. Further, the “Plant response rating, Ragweed” value with ragweed [9] is 20. Moreover, in the assay on Italian ryegrass [10], the “Plant response rating, Ryegrass, Italian” value is reported as 0. In the assay on giant foxtail [11], the “Plant response rating, Foxtail, Giant” value turned out to be 40. For the same compound, in the assay on pigweed [12], the “Plant response rating, Pigweed” value was determined as 80. The “Plant response rating, Wheat” value with wheat is given as 0. Further, the “Plant response rating, Corn” value with corn turned out to be 20. In the assay on blackgrass, the “Plant response rating, Blackgrass” value is on record as 40. Moreover, the “Plant response rating, Galium” value with galium turned out to be 70.

The record behind these values is patent US9695155B2, “Herbicidal substituted pyrimidinyloxy benzene compounds” (E. I. DU PONT DE NEMOURS AND COMPANY, priority 2013, dated 2017).
